Data reported in PubChem BioAssay AID1896 (NMMLSC, 2009).
Activity calls are given as the source filed them. The rule behind the calls is not given here.

Biological target: Mitogen-activated protein kinase kinase kinase 3 (Homo sapiens) (UniProt Q99759)
Assay: MEKK3 PB1-MEK5 interaction blockers – biochemical, bead multiplex flow cytometry, wildtype, dose response (AID 1896)
Conditions: bead-based multiplex flow cytometry, MEK5-MEKK3 PB1 binding; for Ki: measured here: Ki from EC50

Chain of Mitogen-activated protein kinase kinase kinase 3 (Homo sapiens) (Q99759 whole entry, looked up): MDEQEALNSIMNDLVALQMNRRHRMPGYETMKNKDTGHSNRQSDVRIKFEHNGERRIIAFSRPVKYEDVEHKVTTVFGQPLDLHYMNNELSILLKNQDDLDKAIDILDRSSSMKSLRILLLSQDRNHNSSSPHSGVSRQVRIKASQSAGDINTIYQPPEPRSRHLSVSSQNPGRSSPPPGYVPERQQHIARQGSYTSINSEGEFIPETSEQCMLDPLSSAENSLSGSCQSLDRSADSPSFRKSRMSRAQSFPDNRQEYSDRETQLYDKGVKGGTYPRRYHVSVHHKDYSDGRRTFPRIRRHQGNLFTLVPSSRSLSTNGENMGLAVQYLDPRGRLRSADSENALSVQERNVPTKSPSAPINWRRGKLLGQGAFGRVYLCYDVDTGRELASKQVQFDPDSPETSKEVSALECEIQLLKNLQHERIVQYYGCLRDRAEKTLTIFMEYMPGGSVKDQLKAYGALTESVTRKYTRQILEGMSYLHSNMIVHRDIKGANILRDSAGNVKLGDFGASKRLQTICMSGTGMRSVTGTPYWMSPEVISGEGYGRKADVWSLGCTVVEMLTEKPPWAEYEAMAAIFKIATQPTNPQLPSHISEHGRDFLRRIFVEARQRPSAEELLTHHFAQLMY

SMILES | EC50 | Ki [µM]
CCOC(=O)c1c(C)n(-c2ccc(C)cc2)c2ccc(OCC(O)CN3CCN(C)CC3)cc12 (centres undefined) | > 30 µM (inactive) | 
Cc1c2cc(O)c(=O)cc-2oc2cc(O)c(O)cc12 | > 30 µM (inactive) | 
C#CCOCCOCCOCCNc1nc(N2CCN(C(=O)[C@H](CCCCN)n3cc([C@@H](N)CC(C)C)nn3)CC2)nc(N2CCN(C(=O)[C@H](Cc3cc4ccccc4[nH]3)n3cc([C@@H](N)Cc4ccc(O)cc4)nn3)CC2)n1 | > 30 µM (inactive) | 
C#CCOCCOCCOCCNc1nc(N2CCN(C(=O)[C@H](CCC(=O)O)n3cc(C(N)CO)nn3)CC2)nc(N2CCN(C(=O)[C@H](Cc3cc4ccccc4[nH]3)n3cc(C(N)[C@H](C)CC)nn3)CC2)n1 (some centres undefined) | > 30 µM (inactive) | 
C#CCOCCOCCOCCNc1nc(N2CCN(C(=O)C(Cc3cc4ccccc4[nH]3)n3cc(C(N)C(C)CC)nn3)CC2)nc(N2CCN(C(=O)C(Cc3cc4ccccc4[nH]3)n3cc(C(N)C(C)CC)nn3)CC2)n1 (centres undefined) | > 30 µM (inactive) | 
NC(=NCCCCCCN=C(N)/N=C(\N)Nc1ccc(Cl)cc1)/N=C(\N)Nc1ccc(Cl)cc1 | > 30 µM (inactive) | 
FC(F)(F)c1cccc(NC(=S)N(CCCN2CCCC2)Cc2cccn2Cc2ccc(Cl)cc2)c1 | > 30 µM (inactive) | 
CCCCCCCCCC[N+](C)(C)CC/C=C1/c2ccccc2Sc2ccc(Cl)cc21 | > 30 µM (inactive) | 
C#CCOCCOCCOCCNc1nc(N2CCN(C(=O)C([C@@H](C)CC)n3cc(C(N)COC(=O)C(F)(F)F)nn3)CC2)nc(N2CCN(C(=O)[C@H](CCCCN)n3cc(C(N)[C@H](C)CC)nn3)CC2)n1 (some centres undefined) | > 30 µM (inactive) | 
C#CCOCCOCCOCCNc1nc(N2CCN(C(=O)[C@H](Cc3cc4ccccc4[nH]3)n3cc([C@@H](N)C(C)CC)nn3)CC2)nc(N2CCN(C(=O)[C@H](Cc3cc4ccccc4[nH]3)n3cc([C@@H](N)CC(C)C)nn3)CC2)n1 (some centres undefined) | > 30 µM (inactive) | 
C#CCOCCOCCOCCNc1nc(N2CCN(C(=O)[C@H](Cc3ccc(O)cc3)n3cc([C@@H](N)C(C)CC)nn3)CC2)nc(N2CCN(C(=O)[C@H](Cc3cc4ccccc4[nH]3)n3cc([C@@H](N)Cc4ccc(O)cc4)nn3)CC2)n1 (some centres undefined) | > 30 µM (inactive) | 
CCCCCCOc1ccc(/C(C)=N/NC2=NCCN2)cc1[N+](=O)[O-] | > 30 µM (inactive) | 
CN1CCN(CC(O)COc2ccc(C34CC5CC(CC(C5)C3)C4)cc2)CC1 (centres undefined) | > 30 µM (inactive) | 

Now from value to compound:

EC50 | Ki [µM] | SMILES
> 30 µM (inactive) |  | CCCCCCCCCCOC(=O)Cn1c(COc2ccc(OC)cc2)[n+](C)c2ccccc21
> 30 µM (inactive) |  | CCN(CC)CCOc1ccc2c(c1)C(=NNC(=O)c1ccccn1)c1cc(OCCN(CC)CC)ccc1-2
> 30 µM (inactive) |  | CC(C)n1cc(CN2CCC(C(=O)Nc3cccc(-c4cccc(Cl)c4)c3)CC2)cn1
> 30 µM (inactive) |  | O=C1c2ccccc2-c2onc3ccc(NCc4ccco4)c1c23
> 30 µM (inactive) |  | COc1ccc(CSc2n[nH]c(C)n2)cc1[N+](=O)[O-]
> 30 µM (inactive) |  | CCc1ccc(Nc2n[n+](-c3ccccc3)c(-c3cc(OC)c(OC)cc3Br)s2)cc1
2.52 µM | 2.15 | CCN(CC)CCOC(=O)c1ccc(N/C=C(/C#N)c2nc(-c3ccc(OC)c(OC)c3)cs2)cc1
> 30 µM (inactive) |  | COc1ccc(C2NCCc3c2[nH]c2ccccc32)cc1CN1CCc2cc(OC)c(OC)cc2C1C (centres undefined)
> 30 µM (inactive) |  | COc1ccc(CNC[C@@H](CCCCN(C)Cc2ccc(OC)cc2)N2C[C@H](c3ccccc3)N(CCc3ccc(Cl)c(Cl)c3)C(=O)C2=O)cc1
> 30 µM (inactive) |  | Nc1ccc2nc(-c3ccc(-c4nc5ccc(N)cc5[nH]4)cc3)[nH]c2c1
> 30 µM (inactive) |  | CCC(/C=C1\Sc2ccc(OC)cc2N1CC)=C\c1sc2ccc(OC)cc2[n+]1CCCS(=O)(=O)[O-]
5.37 µM | 4.59 | COc1cccc(OC)c1-c1nn2c(-c3cc(-c4ccccc4)n[nH]3)nnc2s1
> 30 µM (inactive) |  | CCN1/C(=C/C=C/C=C/C=C/c2sc3ccccc3[n+]2CC)Sc2ccccc21
> 30 µM (inactive) |  | COCCNC(=O)CN(c1cc(Cl)ccc1OC)S(=O)(=O)c1ccc(C)c([N+](=O)[O-])c1
